Drawing on paper PMC4289911, “[^68Ga]FSC-(RGD)3 a trimeric RGD peptide for imaging αvβ3 integrin expression based on a novel siderophore derived chelating scaffold—synthesis and evaluation” (Nuclear Medicine and Biology, 2015), this text covers IC50 for 3 compounds.

Where two headings read alike, the source gives them in different places.

Experiment [1] concerns the target T1, αvβ3 integrin (Homo sapiens, UniProt P05106+P06756).
T1 construct: purchased Millipore-Chemicon, Temecula, CA, USA
In words: Binding affinity for immobilized αvβ3 integrin, displacement of [125I]c(RGDyV). Particulars: isolated αvβ3 integrin coated on 96-well plates, radioligand [125I]c(RGDyV), 0.001 to 100 nM peptide, three independent measurements. The method, then: In vitro binding affinities of FSC-(RGD)3 and cyclo(-Arg-Gly-Asp-DTyr-Val-) (c(RGDyV)) as control were determined by using isolated αvβ3 integrin (Millipore-Chemicon, Temecula, CA, USA) and ^125I labeled c(RGDyV) as radioligand. The detailed procedure can be found in [16]. Briefly, 96-well plates (Nunc, Thermo Fisher Scientific, Vienna, Austria) were coated for 16 hours at 4 °C with the αvβ3 integrin. Subsequently, the immobilized receptors were incubated with [^125I]c(RGDyV) and increasing concentrations of the corresponding peptide ranging from 0.001 to 100 nM. The unbound fraction of radioligand was washed out, and receptor bound activity was obtained treating the wells with sodium hydroxide (NaOH) solution (2 M). IC50 values were determined by fitting the percent inhibition using OriginPro 8.5 software (Northhampton, MA, USA). Three independent measurements were made.
For orientation: Displacement assays read how much labelled ligand stays bound in the presence of the test substance.

Experiment [2] has as its target T1, αvβ3 integrin. Particulars: comparison value; read-out: IC50, binding affinity for αvβ3 integrin; cited from earlier work. The source says:
A high binding affinity to the isolated αvβ3 integrin for [^68Ga]FSC-(RGD)3 was found. […] A remarkable enhancement of internalized activity in comparison to [^68Ga]NODAGA-RGD or other monomeric RGD derivatives, [16] was observed. Moreover, ...

T1 sequence (P06756 31-889 limits assumed): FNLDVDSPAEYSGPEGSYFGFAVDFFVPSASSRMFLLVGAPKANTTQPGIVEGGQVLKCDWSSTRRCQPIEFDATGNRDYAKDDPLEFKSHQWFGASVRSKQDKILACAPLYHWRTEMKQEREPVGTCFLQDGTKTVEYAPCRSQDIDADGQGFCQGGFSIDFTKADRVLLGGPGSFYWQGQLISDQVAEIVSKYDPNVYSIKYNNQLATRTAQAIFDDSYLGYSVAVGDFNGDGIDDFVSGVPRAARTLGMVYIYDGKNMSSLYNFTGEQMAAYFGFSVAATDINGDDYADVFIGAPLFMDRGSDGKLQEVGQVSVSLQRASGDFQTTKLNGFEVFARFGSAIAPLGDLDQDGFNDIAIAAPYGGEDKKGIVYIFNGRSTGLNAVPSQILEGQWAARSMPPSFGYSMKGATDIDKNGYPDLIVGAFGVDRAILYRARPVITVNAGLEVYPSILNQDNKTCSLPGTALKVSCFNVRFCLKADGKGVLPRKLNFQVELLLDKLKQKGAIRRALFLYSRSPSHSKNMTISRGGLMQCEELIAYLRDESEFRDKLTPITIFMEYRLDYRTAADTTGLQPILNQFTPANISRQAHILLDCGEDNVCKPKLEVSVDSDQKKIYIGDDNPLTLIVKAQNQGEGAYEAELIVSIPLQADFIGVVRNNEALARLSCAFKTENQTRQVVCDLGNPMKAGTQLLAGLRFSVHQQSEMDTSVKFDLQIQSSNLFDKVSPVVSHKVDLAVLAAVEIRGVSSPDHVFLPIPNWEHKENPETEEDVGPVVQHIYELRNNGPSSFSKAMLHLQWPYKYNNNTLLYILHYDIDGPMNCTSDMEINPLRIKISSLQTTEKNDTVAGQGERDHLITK
T1 sequence (P06756 891-1048 partner limits assumed): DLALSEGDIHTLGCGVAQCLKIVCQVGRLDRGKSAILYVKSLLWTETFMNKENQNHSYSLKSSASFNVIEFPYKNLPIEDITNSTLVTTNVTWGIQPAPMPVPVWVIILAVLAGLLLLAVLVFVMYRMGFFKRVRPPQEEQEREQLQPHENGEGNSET
T1 sequence (P05106 27-788): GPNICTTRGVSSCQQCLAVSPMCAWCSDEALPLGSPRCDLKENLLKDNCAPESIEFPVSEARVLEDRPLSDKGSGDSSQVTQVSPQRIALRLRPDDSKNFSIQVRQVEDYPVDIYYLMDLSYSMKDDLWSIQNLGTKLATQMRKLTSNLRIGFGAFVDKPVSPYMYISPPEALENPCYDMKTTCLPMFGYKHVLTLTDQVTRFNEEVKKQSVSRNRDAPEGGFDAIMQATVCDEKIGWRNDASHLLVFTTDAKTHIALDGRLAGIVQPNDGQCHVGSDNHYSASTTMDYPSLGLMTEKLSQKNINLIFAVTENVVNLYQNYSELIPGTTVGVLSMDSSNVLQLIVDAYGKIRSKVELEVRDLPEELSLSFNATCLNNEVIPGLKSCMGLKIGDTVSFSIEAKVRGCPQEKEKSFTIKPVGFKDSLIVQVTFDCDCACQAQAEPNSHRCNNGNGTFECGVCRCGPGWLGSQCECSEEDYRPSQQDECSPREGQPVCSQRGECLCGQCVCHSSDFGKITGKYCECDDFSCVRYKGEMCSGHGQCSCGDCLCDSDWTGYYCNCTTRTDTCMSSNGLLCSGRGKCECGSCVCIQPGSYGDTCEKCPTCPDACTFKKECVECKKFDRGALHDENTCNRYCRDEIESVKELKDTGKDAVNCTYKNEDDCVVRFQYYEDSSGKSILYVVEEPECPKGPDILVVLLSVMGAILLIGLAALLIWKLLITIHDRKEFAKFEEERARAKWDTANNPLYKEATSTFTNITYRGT

In the case of `CC(C)[C@@H]1NC(=O)[C@@H](Cc2ccc(O)cc2)NC(=O)[C@H](CC(=O)O)NC(=O)CNC(=O)[C@H](CCCNC(=N)N)NC1=O` [c(RGDyV), cyclo(-Arg-Gly-Asp-DTyr-Val-)], the IC50 (in general, the point on the concentration scale where inhibition reaches its midpoint) at αvβ3 integrin [1] was 3.2 ± 1.2 nM. Regarding “[^68Ga]NODAGA-RGD: established monomeric 68Ga-labeled RGD peptide”, the IC50 with αvβ3 integrin [2] was 4.7 nM. Take `C/C1=C/C(=O)N(O)CCC[C@H](NC(=O)CCC(=O)NCCCC[C@@H]2NC(=O)[C@@H](Cc3ccccc3)NC(=O)[C@H](CC(=O)O)NC(=O)CNC(=O)[C@H](CCCNC(=N)N)NC2=O)C(=O)OCC/C(C)=C\C(=O)N(O)CCC[C@H](NC(=O)CCC(=O)NCCCC[C@@H]2NC(=O)[C@@H](Cc3ccccc3)NC(=O)[C@H](CC(=O)O)NC(=O)CNC(=O)[C@H](CCCNC(=N)N)NC2=O)C(=O)OCC/C(C)=C\C(=O)N(O)CCC[C@H](NC(=O)CCC(=O)NCCCC[C@@H]2NC(=O)[C@@H](Cc3ccccc3)NC(=O)[C@H](CC(=O)O)NC(=O)CNC(=O)[C@H](CCCNC(=N)N)NC2=O)C(=O)OCC1` [FSC-(RGD)3]: the IC50 at αvβ3 integrin [1] came to 1.8 ± 0.6 nM.
